The values that follow come from patent US20030018061A1, “Novel remedies with the use of beta 3 agonist” (priority 2000, published 2003).

The test system of data set [1] is Genetically diabetic mice. Description: Antidiabetic effect (IV): genetically diabetic mice, acarbose and β3 agonist. Format: in vivo. The following applies: oral, 2 weeks; ACA 1 mg/kg; compound c, d 0.3 mg/kg; e, g 3 mg/kg; h, i 1 mg/kg; alone or combined.
Method: Genetically diabetic mice were orally administered with acarbose (ACA: 1 mg/kg), a β3 agonist (compound c: 0.3 mg/kg; compound d: 0.3 mg/kg; compound e: 3 mg/kg; compound g: 3 mg/kg; compound h: 1 mg/kg; compound i: 1 mg/kg), or ACA and a β3 agonist (compound c, compound d, compound e, compound g, compound h, and compound i) in combination (each dosage was the same as the aforementioned) for 2 weeks. Blood was collected thereafter, and the amount of glucose contained in blood plasma was measured.
In data set [2] the test system is Genetically diabetic mice. Description: Antidiabetic effect (III): genetically diabetic mice, rosiglitazone and β3 agonist. Format: in vivo. The following applies: oral, 2 weeks; ROS 1 mg/kg; compound c, d 0.3 mg/kg; e, g 3 mg/kg; h, i 1 mg/kg; alone or combined. Here is the method:
Genetically diabetic mice were orally administered with rosiglitazone (ROS: 1 mg/kg), a β3 agonist (compound c: 0.3 mg/kg; compound d: 0.3 mg/kg; compound e: 3 mg/kg; compound g: 3 mg/kg; compound h: 1 mg/kg; compound i: 1 mg/kg), or ROS and a β3 agonist (compound c, compound d, compound e, compound g, compound h, and compound i) in combination (each dosage was the same as the aforementioned) for 2 weeks. Blood was collected thereafter, and the amount of glucose contained in blood plasma was measured.

Data set [3] deals with Mice induced with obesity by feeding with a high fat diet. Description: Antiobestic effect (II): body weight of high fat diet obese mice, orlistat and β3 agonist. The following applies: oral, 2 weeks; orlistat 1 mg/kg; compound c, d 0.3 mg/kg; e, g 3 mg/kg; h, i 1 mg/kg; alone or combined at same doses. Format: in vivo. Here is the method: Mice induced with obesity by feeding with a high fat diet for 2 months were orally administered with orlistat (1 mg/kg), a β3 agonist (compound c: 0.3 mg/kg; compound d: 0.3 mg/kg; compound e: 3 mg/kg; compound g: 3 mg/kg; compound h: 1 mg/kg; compound i: 1 mg/kg), or orlistat and a β3 agonist (compound c, compound d, compound e, compound g, compound h, and compound i) in combination (each dosage was the same as the aforementioned) for 2 weeks and bred, and body weight was measured.

Data set [4] has as its system human urinary bladder compression muscle. Description: Relaxation of carbachol-contracted human urinary bladder compression muscle. Type of data set: cell-based. The following applies: for relaxation of bladder compression muscle, combination with propiverine: 10^−6 M propiverine plus compound (a, b, f, g 10^−9 M; c, d 10^−10 M; e, h, i 10^−8 M); for relaxation of bladder compression muscle, combination with propiverine / relaxation of bladder compression muscle, combination with oxybutynin / relaxation of bladder compression muscle, combination with tolterodine: in comparison with each compound alone; for relaxation of bladder compression muscle, combination with oxybutynin: 10^−9 M oxybutynin plus compound (a, b, f, g 10^−9 M; c 10^−10 M; e, h, i 10^−8 M); for relaxation of bladder compression muscle, combination with tolterodine: 10^−9 M tolterodine plus compound (a, b, f, g 10^−9 M; d 10^−10 M; e, h, i 10^−8 M); for concentration at which the bladder compression muscle was significantly relaxed / concentration at which the muscle was not relaxed significantly: contraction provoked by carbachol (0.5×10^−6 M), each compound alone.

For data set [5], the system named is Mice. Description: Antidiabetic effect: plasma glucose in mice, insulin and β3 agonist. The following applies: 30 min after dosing; INS 0.2 U/kg intraperitoneal; oral compound a 10 mg/kg; c, d 0.3 mg/kg; e, g 3 mg/kg; h, i 1 mg/kg; alone or combined. Format: in vivo. Here is the method: Mice were administered with insulin (INS: 0.2 U/kg, intraperitoneal injection), a β3 agonist (oral administration of compound a: 10 mg/kg; compound c: 0.3 mg/kg; compound d: 0.3 mg/kg; compound e: 3 mg/kg; compound g: 3 mg/kg; compound h: 1 mg/kg; compound i: 1 mg/kg, respectively), or INS and a β3 agonist (compound a, compound c, compound d, compound e, compound g, compound h, and compound i) in combination (each dosage and administration route was the same as the aforementioned), blood was collected after 30 min, and the amount of glucose contained in blood plasma was measured.

In data set [6] the test system is Mice induced with obesity by feeding with a high fat diet. The experiment in a line: Antiobestic effect (I): body weight of high fat diet obese mice, sibutramine and β3 agonist. The following applies: oral, 2 weeks; SIB 1 mg/kg; compound c, d 0.3 mg/kg; e, g 3 mg/kg; h, i 1 mg/kg; alone or combined at same doses. Format: in vivo. Here is the method:
Mice induced with obesity by feeding with a high fat diet for 2 months were orally administered with sibutramine (SIB: 1 mg/kg), a β3 agonist (compound c: 0.3 mg/kg; compound d: 0.3 mg/kg; compound e: 3 mg/kg; compound g: 3 mg/kg; compound h: 1 mg/kg; compound i: 1 mg/kg), or SIB and a β3 agonist (compound c, compound d, compound e, compound g, compound h, and compound i) in combination (each dosage was the same as the aforementioned) for 2 weeks and bred, and body weight was measured.

Data set [7] deals with Mice. Description: Antilipemic effect (II): plasma triglyceride in mice, bezafibrate and β3 agonist. Format: in vivo. The following applies: oral, 2 weeks; administered solely: BEZ 3 mg/kg; compound c, d 0.3 mg/kg; e, g 3 mg/kg; h, i 1 mg/kg.
Method: Mice were orally administered with bezafibrate (BEZ: 3 mg/kg), a β3 agonist (compound c: 0.3 mg/kg; compound d: 0.3 mg/kg; compound e: 3 mg/kg; compound g: 3 mg/kg; compound h: 1 mg/kg; compound i: 1 mg/kg), or BEZ and a β3 agonist (compound c, compound d, compound e, compound g, compound h, and compound i) in combination (each dosage was the same as the aforementioned) for 2 weeks. Blood was collected thereafter, and the amount of triglyceride contained in blood plasma was measured.
The test system of data set [8] is Mice fasted overnight, glucose loaded. Description: Antidiabetic effect (II): plasma glucose after glucose loading in fasted mice, glibenclamide and β3 agonist. Type of data set: in vivo. The following applies: 1 hour after glucose load (1 g/kg s.c.), oral GLI 10 mg/kg, compound a 10 mg/kg, d 0.3 mg/kg, e, g 3 mg/kg, i 1 mg/kg, vs glucose loading only. Here is the method:
Mice fasted overnight were orally administered with glibenclamide (GLI: 10 mg/kg), a β3 agonist (compound a: 10 mg/kg; compound c: 0.3 mg/kg; compound d: 0.3 mg/kg; compound e: 3 mg/kg; compound g: 3 mg/kg; compound h: 1 mg/kg; compound i: 1 mg/kg), or GLI and a β3 agonist (compound a, compound c, compound d, compound e, compound g, compound h, and compound i) in combination (each dosage was the same as the aforementioned), and immediately glucose (1 g/kg, subcutaneous injection) was loaded. Blood was collected after 1 hour, and the amount of glucose contained in blood plasma was measured.
In this combined use, hypoglycemia, which is a side effect of glibenclamide, was not observed.

Data set [9] relates to salivation induced with pilocarpine. The experiment in a line: Mouth dryness: suppression of salivation induced with pilocarpine (method of Nagao et al.). Type of data set: in vivo. The text has this:
Examples of a selectable index of toxicity include mouth dryness, which is cited as a side effect of anticholinergic agents. Such mouth dryness can be measured by evaluating suppression of salivation induced with pilocarpine in accordance with the method of Nagao et al. (Folia Pharmacologica Japonica, Vol. 113, p156-166 (1999)). Further, elevation of blood pressure that is cited as a side effect of sibutramine can also be employed as an index of toxicity. Such elevation of blood pressure can be determined through use of a pressure transducer. Gastrointestinal dysfunction (fatty stool, defecation increase, abdominal pain, impending defecation desire) that is cited as a side effect of orlistat can also be employed as an index of toxicity. Such gastrointestinal dysfunction can be examined by analyzing the stool amount and the stool composition. Promotion of appetite that is cited as a side effect of insulin secretagogue can also be employed as an index of toxicity. Such promotion of appetite can be determined by observing body weight fluctuations using an animal, and hypoglycemia can be determined by investigating the concentration of glucose in blood. Loose passage that is cited as a side effect of α-glucosidase inhibitor can also be employed as an index of toxicity. Such loose passage and diarrhea can be investigated by, in the case of administration to animal, external observation of stool, or by analysis of stool amount and stool composition. Body weight gain that is cited as a side effect of insulin resistance improving agent can also be employed as an index of toxicity. Such body weight gain can be investigated by measurement of body weight after administration to animal. Gastrointestinal dysfunction that is cited as a side effect of HMG-CoA reductase inhibitor can also be employed as an index of toxicity. Such gastrointestinal dysfunction can be investigated by analysis of stool amount and stool composition. Gastrointestinal dysfunction that is cited as a side effect of clofibrate type drugs can also be employed as an index of toxicity. […]

The mark [10] stands for this setting: in the condition of a reduced dosage.

For `CN(C)S(=O)(=O)Nc1cc([C@@H](O)CNCCOc2ccc3c(c2)oc2ccccc23)ccc1O` [compound g, (R)-N′-[5-[2-[2-(dibenzofuran-3-iloxy)ethylamino]-1-hydroxyethyl]-2-hydroxyphenyl]-N,N-dimethyl sulfonyl amide], the “blood glucose level (glucose in blood plasma)” value (shortened to “blood glucose level”) in data set [1] is reported as “no difference”; in data set [2] it was “no difference in the blood glucose level”; in the data set on Mice [5], “no change in blood glucose level”; in [8] it was “almost no difference in the blood glucose level”. For the same molecule, the body weight entry in data set [3] and in data set [6] was “almost no change in body weight” in each case. Besides, in data set [4], the “relaxation of bladder compression muscle, combination with propiverine” value (shortened to “relaxation … with propiverine”) is on record as “relaxed significantly”. The “relaxation of bladder compression muscle, combination with oxybutynin” value (“relaxation … with oxybutynin” for short) in [4] is reported as “relaxed significantly”. In addition, the “relaxation of bladder compression muscle, combination with tolterodine” value (shortened to “relaxation … with tolterodine”) in data set [4] was “relaxed significantly”. Besides, the “concentration at which the bladder compression muscle was significantly relaxed” value in data set [4] is reported as 10^−7 M. In addition, the “concentration at which the muscle was not relaxed significantly” value in [4] is listed as 10^−9 M. Also, the plasma triglyceride level result with Mice [7] is “no difference”.

As for `CS(=O)(=O)Nc1cc([C@@H](O)CNCCOc2ccc3c(c2)[nH]c2ccccc23)ccc1Cl` [compound h, (R)-N-[5-[2-[2-(9H-carbazole-2-iloxy)ethylamino]-1-hydroxyethyl]-2-chlorophenyl]methanesulfonamide], in data set [1], the “blood glucose level” value is on record as “no difference”. In addition, in [2], the “blood glucose level” value is “no difference in the blood glucose level”. Besides, the body weight entry in data set [3] is “almost no change in body weight”. In data set [4], the “relaxation … with propiverine” value is recorded as “relaxed significantly”; the “relaxation … with oxybutynin” value is “relaxed significantly”; the “relaxation … with tolterodine” value is recorded as “relaxed significantly”; the “concentration at which the bladder compression muscle was significantly relaxed” value is reported as 10^−6 M. In addition, the “concentration at which the muscle was not relaxed significantly” value in data set [4] is recorded as 10^−8 M. Moreover, the “blood glucose level” value with Mice [5] was “no change in blood glucose level”. In addition, the body weight entry in data set [6] is recorded as “almost no change in body weight”. Moreover, the plasma triglyceride level entry in the data set on Mice [7] is “no difference”. Besides, in data set [8], the “blood glucose level” value is reported as “almost no difference in the blood glucose level”.

As for `CS(=O)(=O)Nc1cc([C@@H](O)CNCCOc2ccc3c(c2)[nH]c2ccccc23)ccc1Br` [compound i, (R)-N-[5-[2-[2-(9H-carbazole-2-iloxy)ethylamino]-1-hydroxyethyl]-2-bromophenyl]methanesulfonamide], in data set [1], the “blood glucose level” value was “no difference”. The “blood glucose level” value in data set [2] is “no difference in the blood glucose level”. Further, the body weight entry in data set [3] was “almost no change in body weight”. Besides, in data set [4], the “relaxation … with propiverine” value is listed as “relaxed significantly”; the “relaxation … with oxybutynin” value is on record as “relaxed significantly”; the “relaxation … with tolterodine” value is recorded as “relaxed significantly”; the “concentration at which the bladder compression muscle was significantly relaxed” value is recorded as 10^−6 M. Further, the “concentration at which the muscle was not relaxed significantly” value in data set [4] is reported as 10^−8 M. The “blood glucose level” value in the data set on Mice [5] is “no change in blood glucose level”. In [6], the body weight result is listed as “almost no change in body weight”. For the same molecule, the plasma triglyceride level entry in the data set on Mice [7] is on record as “no difference”. Further, in [8], the “blood glucose level” value is given as “almost no difference in the blood glucose level”.

Consider `CCN(CC)CC#CCOC(=O)C(O)(c1ccccc1)C1CCCCC1` (stereo not drawn) [oxybutynin, reference compound], for which the “suppression of salivation (mouth dryness side effect)” value (“suppression of salivation” for short) in data set [9] (setting [10]) is on record as “observed”. In data set [4], the “concentration at which the bladder compression muscle was significantly relaxed” value was 10^−8 M and the “concentration at which the muscle was not relaxed significantly” value is 10^−9 M.

Regarding `CCCOC(C(=O)OC1CCN(C)CC1)(c1ccccc1)c1ccccc1` [propiverine, reference compound], the “suppression of salivation” value in data set [9] (setting [10]) is on record as “observed”. Moreover, in data set [4], the “concentration at which the bladder compression muscle was significantly relaxed” value is recorded as 10^−5 M and the “concentration at which the muscle was not relaxed significantly” value was 10^−6 M.

Consider `Cc1ccc(O)c([C@H](CCN(C(C)C)C(C)C)c2ccccc2)c1` [tolterodine, reference compound], for which the “suppression of salivation” value in [9] (in vivo) is on record as “observed”. Besides, in data set [4], the “concentration at which the bladder compression muscle was significantly relaxed” value is 10^−8 M and the “concentration at which the muscle was not relaxed significantly” value is given as 10^−9 M.
